Test results reported in patent US20230393120A1, “A HUMAN VASCULAR INJURY-ON-A-CHIP MODEL OF HEMOSTASIS” (THE TRUSTEES OF THE UNIVERSITY OF PENNSYLVANIA, priority 2020, published 2023).
Where a SMILES comes first, the peptide text is derived from it. Bridges are numbered along the chain shown (N, C = ends). [ ]: non-standard residue; d: D form. hArg = N=C(N)NCCCC[C@H](N)C(=O)O; Mpa = O=C(O)CCS

System: injury-induced platelet and fibrin deposition (hemostatic plug formation), human whole blood
Test: Drug testing in the vascular injury-on-a-chip perfused with drug-containing whole blood
Assay type: cell-based
Excerpt: Human vascular injury-on-a-chip as a drug screening platform: anticoagulants and antiplatelet agents can be used for treating or preventing thrombotic events in the arterial and venous circulations. However, anticoagulants and antiplatelet agents can increase the risk of bleeding, especially when used in combination. The disclosed vascular injury-on-a-chip model provides a potential tool for evaluating these adverse effects, offering a complementary approach to animal models. Such features were tested using Hirudin and eptifibatide as model compounds representing anticoagulant and antiplatelet drugs, respectively. The disclosed subject matter was used to measure and compare the extent of injury-induced platelet and fibrin deposition when the disclosed devices were perfused with drug-containing whole blood. […] For quantitative analysis, we devised an injury closure score ranging between 0 and 2, which corresponds to fully open and fully closed, respectively. The hirudin-treated devices yielded an average score of […] the untreated control group scored 1.138. (FIG. 5E), indicating the adverse effects of Hirudin on the formation of competent hemostatic plugs.
Preparation of blood vessel-on-a-chip: Assembled devices were autoclaved for sterilization prior to cell culture. To increase the strength of interfacial adhesion between collagen gel and PDMS, dopamine hydrochloride (Sigma-Aldrich) solution (2.0 mg/mL w/v in 10 mM Tris-HCl buffer, pH 8.5) was injected into the middle compartment of the device and incubated for 2 hours at room temperature. Next, 6 mg/ml of rat-tail collagen type I containing 2.5% (v/v) lipidated tissue factor (Dade Innovin Reagent, Siemens) was introduced into the polydopamine-treated chamber and polymerized at 37° C. for 30 minutes. After gelation, HUVECs suspended in EGM-2 medium were seeded into the intravascular channel at a density of 1.6-1.8×10^6 cells/ml and allowed to settle and adhere to the surface of the collagen hydrogel by rotating the device by 90°. Following cell attachment, the device was perfused with medium to form a confluent endothelial monolayer. For TNF-a experiments, HUVECs were seeded on a tissue factor-free collagen gel and treated overnight with 1 ng/ml of TNF-a (Peprotech).
Healthy donor blood preparation: The blood was obtained via venipuncture into a syringe containing 3.8% sodium citrate (9:1) and 40 μg/ml of corn trypsin inhibitor (CTI). Right before perfusion through the device, the blood was recalcified (15 mM CaCl2) for 3 minutes. Fluorescently-labeled antibodies to detect platelets (a-CD61-568), P-selectin (a-CD62P-647), and fibrin (a-Fibrin-488) were added at a final concentration of 1 μg/ml. If inhibitors were used in the experiment, they were added in the recalcification step as well. The final concentration for eptifibatide acetate was 100 μM, and for Hirudin was 4 μg/ml.
Puncture injury and global hemostasis assessment: For precise spatial control of injury, a 30 G blunt needle was inserted between the two PM DS channel layers during device assembly and used as a sheath that guides the insertion of a microneedle. To induce puncture injury, either a 0.12 or 0.20 mm acupuncture needle was inserted into the guide needle and gently pushed towards the extravascular compartments in a controlled manner either to pierce through the endothelium and the entire thickness of the collagen hydrogel or to superficially injure the endothelial layer. Following injury, the intravascular and extravascular channels were perfused with recalcified blood and HBSS buffer (20 mM HEPES, 2 mM Ca2+), respectively using two independently controlled syringe pumps (Fusion 400, Chemyx & BS-8000 120 V, Braintree Scientific).
Fluorescently-labeled antibodies to CD61, P-selectin, and fibrin were added to the blood prior to perfusion through the microfluidic device to visualize platelet deposition, platelet activation, and fibrin accumulation. […]

Row | Compound | contraction of the vessel wall (matrix deformation, normalized injury area over time) (eptifibatide 100 μM) | platelet activation (eptifibatide 100 μM in whole blood) | fibrin accumulation (eptifibatide 100 μM in whole blood, relative to control) | platelet accumulation (eptifibatide 100 μM in whole blood, vs control) | injury channel closure, compared with Hirudin (eptifibatide 100 μM vs Hirudin 4 μg/ml) | state of the injury channel (eptifibatide 100 μM, confocal images) | injury score (0 fully open, 1 partially closed, 2 fully closed) (eptifibatide 100 μM, final time point) | fibrin accumulation (Hirudin 4 μg/ml in whole blood, vs control) | platelet accumulation (Hirudin 4 μg/ml in whole blood, vs control without the drug) | platelet activation (Hirudin 4 μg/ml in whole blood, vs control without the drug, P-selectin MFI) | state of the injury channel openings (Hirudin 4 μg/ml, confocal images) | injury closure (injury closure score 0-2, fully open to fully closed) (Hirudin 4 μg/ml, final time point)
1 | N=C(N)NCCCC[C@@H]1NC(=O)CCSSC[C@@H](C(N)=O)NC(=O)[C@@H]2CCCN2C(=O)[C@H](Cc2c[nH]c3ccccc23)NC(=O)[C@H](CC(=O)O)NC(=O)CNC1=O [eptifibatide] ([Mpa][hArg]GDWPC-NH2; disulfide 1-7) | negligible contraction | reduction | did not change | markedly reduce | to a greater extent than Hirudin | remained open | 0 |  |  |  |  | 
2 | Hirudin |  |  |  |  |  |  |  | drastically reduce | no statistically significant changes | no statistically significant changes | intravascular end of the injury channel remained open, but platelet aggregates blocked the extravascular opening | inhibits
